# Source: patent publication US11072634B2, “Inhibitors of transglutaminases” (Zedira GmbH, priority 2016, dated 2021)
# Biological target: T1, recombinant human tissue transglutaminase (rhTG2) (Homo sapiens, UniProt P21980)
# T1 construct: purchased Zedira 1022 (so in the source); T022)
# T1 sequence (P21980 1-687): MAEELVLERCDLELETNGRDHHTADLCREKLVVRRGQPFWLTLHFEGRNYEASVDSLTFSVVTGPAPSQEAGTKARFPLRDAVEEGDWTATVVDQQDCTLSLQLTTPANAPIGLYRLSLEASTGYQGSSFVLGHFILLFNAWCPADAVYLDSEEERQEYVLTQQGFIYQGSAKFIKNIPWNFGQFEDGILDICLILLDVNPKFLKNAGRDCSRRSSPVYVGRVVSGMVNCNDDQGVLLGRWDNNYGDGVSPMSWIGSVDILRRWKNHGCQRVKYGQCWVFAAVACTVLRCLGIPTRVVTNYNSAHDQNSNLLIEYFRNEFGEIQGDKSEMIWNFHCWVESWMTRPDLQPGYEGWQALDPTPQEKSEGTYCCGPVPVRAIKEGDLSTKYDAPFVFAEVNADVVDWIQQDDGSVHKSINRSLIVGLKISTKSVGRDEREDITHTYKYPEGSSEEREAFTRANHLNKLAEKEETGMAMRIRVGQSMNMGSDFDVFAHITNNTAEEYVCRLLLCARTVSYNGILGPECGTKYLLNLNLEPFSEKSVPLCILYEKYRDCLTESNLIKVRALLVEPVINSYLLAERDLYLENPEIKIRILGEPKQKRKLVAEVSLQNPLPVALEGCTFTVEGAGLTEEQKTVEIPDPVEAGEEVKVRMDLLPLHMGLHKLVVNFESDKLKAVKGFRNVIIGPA
# Test: Inhibition of rec. human tissue transglutaminase (fluorescence, Abz-APE(CAD-DNP)QEA-OH)
# Format: biochemical
# Conditions: Table 2, TG2 inhibitors
# Method: Method for Inhibition Studies of Rec. Human Tissue Transglutaminase (rhTG2)
# 250 μg lyophilized His-tagged recombinant human tissue transglutaminase (His6-rhTG2, Zedira product 1022) is reconstituted in H2O (volume depends on original volume before lyophilization) resulting in a buffer containing 10 mM Tris-HCl, 150 mM NaCl, 1 mM EDTA, 5 mM DTT, 189 mg/ml maltodextrin, pH=8.1. The rhTG2 stock solution is diluted in buffer (50 mM Tris-HCl, 7.5 mM CaCl2, 150 mM NaCl, pH=7.4) to give a working solution of 100 U/ml (based on the amine-incorporation activity measured using T036, described below).
# A 10 mM inhibitor stock solution is prepared in DMSO, and from this stock solution a serial 1:2-fold dilution series is prepared, also in DMSO. Each of these initial dilutions is subsequently diluted 1:50-fold with buffer (50 mM Tris-HCl, 7.5 mM CaCl2, 150 mM NaCl, pH=7.4) to yield the final working dilutions containing 2% (v/v) DMSO. 15 μl of inhibitor working dilution are added per well of a 96 well microtiter plate. As control, 15 μl of a 2% (v/v) DMSO solution prepared using the buffer mentioned above are added per well.
# 600 μl of His6-rhTG2 working solution are added to 11.4 ml assay buffer (50 mM Iris-HCl, 7.5 mM CaCl2, 150 mM NaCl, 5 mM DTI, 13.4 mM glycine methylester, 50 μM Abz-APE(CAD-DNP)QEA-OH, (Zedira product A102; patent No.: EP 1781807B1), pH=7.4). From this master-mix solution, 285 μl are added per well containing the inhibitor. Increase in fluorescence is measured using λex=313 nm and λem=418 nm at 37° C. for 20 min. A slope of the increase in fluorescence between 10 and 20 min is calculated for determination of the IC50 value (inhibitor concentration at which 50% of the initial TG2 activity is blocked).
# Analysis of enzymatic activity is performed by calculation of the slope of an increase in fluorescence intensity. IC50 values are calculated by plotting the enzymatic activity (as percentage from control containing 2% DMSO instead of inhibitor) against the inhibitor concentration. IC50 is defined as the inhibitor concentration blocking 50%) of initial enzyme activity.
row,IC50 [nM],SMILES
1,550,"CNC(=O)C(=O)CC[C@H](NC(=O)c1cncn1C)C(=O)Nc1cccn(CC(=O)NCOC)c1=O [Compound E54, (S)—N1-(1-(2-(methoxymethylamino)-2-oxoethyl)-2-oxo-1,2-dihydropyridin-3-yl)-N6-methyl-2-(1-methyl-1H-imidazole-5-carboxamido)-5-oxohexanediamide]"
2,95,"CCC(CC)CNC(=O)Cn1cccc(NC(=O)[C@H](CCC(=O)C(=O)NC)NC(=O)c2cncnc2)c1=O [Compound E64, (S)—N1-(1-(2-(2-ethylbutylamino)-2-oxoethyl)-2-oxo-1,2-dihydropyridin-3-yl)-N6-methyl-5-oxo-2-(pyrimidine-5-carboxamido)hexanediamide]"
3,65,"CCC(CC)CNC(=O)Cn1cccc(NC(=O)[C@H](CCC(=O)C(=O)NC)NC(=O)c2cnc3ccccc3n2)c1=O [Compound E65, (S)—N1-(1-(2-(2-ethylbutylamino)-2-oxoethyl)-2-oxo-1,2-dihydropyridin-3-yl)-N6-methyl-5-oxo-2-(quinoxaline-2-carboxamido)hexanediamide]"
4,300,"CCN(CC)C(=O)Cn1cccc(NC(=O)[C@H](CCC(=O)C(=O)NC)NC(=O)c2cncn2C)c1=O [Compound E50, (S)—N1-(1-(2-(diethylamino)-2-oxoethyl)-2-oxo-1,2-dihydropyridin-3-yl)-N6-methyl-2-(1-methyl-1H-imidazole-5-carboxamido)-5-oxohexanediamide]"
5,80,"CCC(CC)CNC(=O)Cn1cccc(NC(=O)[C@H](CCC(=O)C(=O)NC)NC(=O)c2ccoc2)c1=O [Compound E61, (S)—N1-(1-(2-(2-ethylbutylamino)-2-oxoethyl)-2-oxo-1,2-dihydropyridin-3-yl)-2-(furan-3-carboxamido)-N6-methyl-5-oxohexanediamide]"
6,135,"CCC(CC)CNC(=O)Cn1cccc(NC(=O)[C@H](CCC(=O)C(=O)CC(C)C)NC(=O)c2cncn2C)c1=O [Compound E80, (S)—N-(1-(1-(2-(2-ethylbutylamino)-2-oxoethyl)-2-oxo-1,2-dihydropyridin-3-ylamino)-8-methyl-1,5,6-trioxononan-2-yl)-1-methyl-1H-imidazole-5-carboxamide]"
7,120,"CCC(CC)CNC(=O)Cn1cccc(NC(=O)[C@H](CCC(=O)C(=O)NC)NS(=O)(=O)c2sc(C)nc2C)c1=O [Compound E66, (S)-2-(2,4-dimethylthiazole-5-sulfonamido)-N1-(1-(2-(2-ethylbutylamino)-2-oxoethyl)-26 oxo-1,2-dihydropyridin-3-yl)-N6-methyl-5-oxohexanediamide]"
8,1600,"CCC(CC)CNC(=O)Cn1ccc(C)c(NC(=O)[C@H](CCC(=O)C(=O)NC)NC(=O)c2cncn2C)c1=O [Compound E42, (S)—N1-(1-(2-(2-ethylbutylamino)-2-oxoethyl)-4-methyl-2-oxo-1,2-dihydropyridin-3-yl)-N6-methyl-2-(1-methyl-1H-imidazole-5-carboxamido)-5-oxohexanediamide]"
9,500,"CCC(CC)CNC(=O)Cn1cccc(NC(=O)[C@H](CCC(=O)C(=O)Nc2cncs2)NC(=O)c2cncn2C)c1=O [Compound E40, (S)—N1-(1-(2-(2-ethylbutylamino)-2-oxoethyl)-2-oxo-1,2-dihydropyridin-3-yl)-2-(1-methyl-1H-imidazole-5-carboxamido)-5-oxo-N6-(thiazol-5-yl)hexanediamide]"
10,760,"CNC(=O)C(=O)CC[C@H](NC(=O)c1cncn1C)C(=O)Nc1cccn(CC(=O)NS(C)(=O)=O)c1=O [Compound E51, (S)—N1-methyl-5-(1-methyl-1H-imidazole-5-carboxamido)-N6-(1-(2-(methylsulfonamido)-2-oxoethyl)-2-oxo-1,2-dihydropyridin-3-yl)-2-oxohexanediamide]"
11,400,"CCC(CC)CNC(=O)Cn1cccc(NC(=O)[C@H](CCC(=O)C(=O)OCCOC)NC(=O)c2cncn2C)c1=O [Compound E78, (S)-2-methoxyethyl 6-(1-(2-(2-ethylbutylamino)-2-oxoethyl)-2-oxo-1,2-dihydropyridin-3-ylamino)-5-(1-methyl-1H-imidazole-5-carboxamido)-2,6-dioxohexanoate]"
12,100,"CCNC(=O)C(=O)CC[C@H](NC(=O)c1cncn1C)C(=O)Nc1cccn(CC(=O)NCC(CC)CC)c1=O [Compound E17, (S)—N1-ethyl-N6-(1-(2-(2-ethylbutylamino)-2-oxoethyl)-2-oxo-1,2-dihydropyridin-3-yl)-5-(1-methyl-1H-imidazole-5-carboxamido)-2-oxonexanediamide]"
13,2000,"CNC(=O)C(=O)CC[C@H](NC(=O)Cc1cc(C)nn1C)C(=O)Nc1cccc(C(=O)N[C@@H](Cc2ccc(-c3ccccc3)cc2)C(=O)N2C[C@H](Oc3ccccc3)C[C@H]2C(N)=O)c1 [Compound E83, (S)—N1-(3-((S)-3-(biphenyl-4-yl)-1-((2S,4R)-2-carbamoyl-4-phenoxypyrrolidin-1-yl)-1-oxopropan-2-ylcarbamoyl)phenyl)-2-(2-(1,3-dimethyl-1H-pyrazol-5-yl)acetamido)-N6-methyl-5-oxohexanediamide]"
14,280,"CCC(CC)CNC(=O)Cn1cccc(NC(=O)[C@H](CCC(=O)C(=O)NC)NC(=O)OC(C)(C)C)c1=O [Compound E58, (S)-tert-butyl 1-(1-(2-(2-ethylbutylamino)-2-oxoethyl)-2-oxo-1,2-dihydropyridin-3-ylamino)-6-(methylamino)-1,5,6-trioxohexan-2-ylcarbamate]"
15,1450,"CCC(CC)CNC(=O)Cn1cccc(NC(=O)[C@H](CCC(=O)C(=O)NCS(=O)(=O)c2ccc(C)cc2)NC(=O)c2cncn2C)c1=O [Compound E41, (S)—N1-(1-(2-(2-ethylbutylamino)-2-oxoethyl)-2-oxo-1,2-dihydropyridin-3-yl)-2-(1-methyl-1H-imidazole-5-carboxamido)-5-oxo-N6-(tosylmethyl)hexanediamide]"
16,125,"CCC(CC)CNC(=O)Cn1cccc(NC(=O)[C@H](CCC(=O)C(C)=O)NC(=O)c2cncn2C)c1=O [Compound E74, (S)—N-(1-(1-(2-(2-ethylbutylamino)-2-oxoethyl)-2-oxo-1,2-dihydropyridin-3-ylamino)-1,5,6-trioxoheptan-2-yl)-1-methyl-1H-imidazole-5-carboxamide]"
17,700,"CCC(CC)CNC(=O)Cn1cccc(NC(=O)[C@H](CCC(=O)C(=O)NCC(=O)OC)NC(=O)c2cncn2C)c1=O [Compound E38, (S)-methyl 2-(6-(1-(2-(2-ethylbutylamino)-2-oxoethyl)-2-oxo-1,2-dihydropyridin-3-ylamino)-5-(1-methyl-1H-imidazole-5-carboxamido)-2,6-dioxohexanamido)acetat]"
